Several values for one entry are separate records, joined by “and”; a condition that tells them apart may be missing. Equal values may be shown once. Read-outs that look alike come from different tables or passages of the source.
Key:
MDM2 = target: T1, MDM2 (Homo sapiens, UniProt Q00987); assay: Inhibition test of MDM2-P53 (GST-MDM2, Biotin-P53, Anti-GST-Tb, SA-XL665); assay type: binding
T1 construct: made in house
Outline: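 Binding was measured by TR-FRET with GST-MDM2 at 4 nM final in PBS with 0.1% BSA, 5 mM DTT and 1 mM AEBSF. Compounds were tested as twelve-point 5-fold dilutions and incubated with the detection mix for 90 min at 25 °C with shaking before plate-reader reading and curve fitting.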

[1] = Pharmacokinetics in ICR mice after intravenous and intragastric administration; assay type: in vivo; settings: for MRT last: read-out: MRT(0-t); for MRT inf: read-out: MRT(0-∞); for Vd: read-out: Vz; for bioavailability: PO 5 mg/kg vs IV 2 mg/kg, from mean values, read-out: F* (bioavailability)
Outline: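 Male ICR mice (6-9 weeks, 20-30 g, n=3 per route) were fasted overnight and dosed at 2 mg/kg i.v. or 5 mg/kg intragastrically in 5% DMSO/40% PEG400/55% (10% HP-β-CD in saline). Plasma levels were measured by LC-MS/MS after protein precipitation (LLOQ 1 ng/mL), and non-compartmental PK parameters were calculated.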

[2] = system: human osteosarcoma cell line SJSA-1; assay: Inhibition of proliferation of human osteosarcoma cell line SJSA-1 (DAPI staining, In Cell Analyzer); settings: Homo sapiens, SJSA-1, 72 h, read-out: IC50 (nM), inhibitory activity on proliferation of human osteosarcoma cell line SJSA-1, SJSA-1, incubated 72 h
[3] = ICR mice, IV 2 mg/kg, individual animal, 2 mg/kg
[4] = ICR mice, PO 5 mg/kg, individual animal, 5 mg/kg
[5] = male, ICR, mouse, plasma, iv, 2 mg/kg, ICR mice, IV 2 mg/kg, individual animal
[6] = male, ICR, mouse, plasma, iv, 2 mg/kg, ICR mice, IV 2 mg/kg, individual animal, read-out: AUC(0-t)
[7] = male, ICR, mouse, plasma, iv, 2 mg/kg, ICR mice, IV 2 mg/kg, individual animal, read-out: Cmax
[8] = male, ICR, mouse, plasma, iv, 2 mg/kg, ICR mice, IV 2 mg/kg, individual animal, read-out: Tmax
[9] = male, ICR, mouse, plasma, iv, 2 mg/kg, ICR mice, IV 2 mg/kg, individual animal, read-out: t1/2 (converted)
[10] = male, ICR, mouse, plasma, iv, 2 mg/kg, ICR mice, IV 2 mg/kg, mean of 3 animals
[11] = male, ICR, mouse, plasma, iv, 2 mg/kg, ICR mice, IV 2 mg/kg, mean of 3 animals, read-out: AUC(0-t)
[12] = male, ICR, mouse, plasma, iv, 2 mg/kg, ICR mice, IV 2 mg/kg, mean of 3 animals, read-out: Cmax
[13] = male, ICR, mouse, plasma, iv, 2 mg/kg, ICR mice, IV 2 mg/kg, mean of 3 animals, read-out: Tmax
[14] = male, ICR, mouse, plasma, iv, 2 mg/kg, ICR mice, IV 2 mg/kg, mean of 3 animals, read-out: t1/2 (converted)
[15] = male, ICR, mouse, plasma, po, 5 mg/kg, ICR mice, PO 5 mg/kg, individual animal
[16] = male, ICR, mouse, plasma, po, 5 mg/kg, ICR mice, PO 5 mg/kg, individual animal, read-out: AUC(0-t)
[17] = male, ICR, mouse, plasma, po, 5 mg/kg, ICR mice, PO 5 mg/kg, individual animal, read-out: Cmax
[18] = male, ICR, mouse, plasma, po, 5 mg/kg, ICR mice, PO 5 mg/kg, individual animal, read-out: Tmax
[19] = male, ICR, mouse, plasma, po, 5 mg/kg, ICR mice, PO 5 mg/kg, individual animal, read-out: t1/2 (converted)
[20] = male, ICR, mouse, plasma, po, 5 mg/kg, ICR mice, PO 5 mg/kg, mean of 3 animals
[21] = male, ICR, mouse, plasma, po, 5 mg/kg, ICR mice, PO 5 mg/kg, mean of 3 animals, read-out: AUC(0-t)
[22] = male, ICR, mouse, plasma, po, 5 mg/kg, ICR mice, PO 5 mg/kg, mean of 3 animals, read-out: Cmax
[23] = male, ICR, mouse, plasma, po, 5 mg/kg, ICR mice, PO 5 mg/kg, mean of 3 animals, read-out: Tmax
[24] = male, ICR, mouse, plasma, po, 5 mg/kg, ICR mice, PO 5 mg/kg, mean of 3 animals, read-out: t1/2 (converted)
[25] = male, ICR, mouse, plasma, po, 5 mg/kg, oral intragastric administration 5 mg/kg, read-out: AUC0-t
[26] = male, ICR, mouse, plasma, po, 5 mg/kg, oral intragastric administration 5 mg/kg, read-out: half-life (converted)

T1 sequence (Q00987 whole entry): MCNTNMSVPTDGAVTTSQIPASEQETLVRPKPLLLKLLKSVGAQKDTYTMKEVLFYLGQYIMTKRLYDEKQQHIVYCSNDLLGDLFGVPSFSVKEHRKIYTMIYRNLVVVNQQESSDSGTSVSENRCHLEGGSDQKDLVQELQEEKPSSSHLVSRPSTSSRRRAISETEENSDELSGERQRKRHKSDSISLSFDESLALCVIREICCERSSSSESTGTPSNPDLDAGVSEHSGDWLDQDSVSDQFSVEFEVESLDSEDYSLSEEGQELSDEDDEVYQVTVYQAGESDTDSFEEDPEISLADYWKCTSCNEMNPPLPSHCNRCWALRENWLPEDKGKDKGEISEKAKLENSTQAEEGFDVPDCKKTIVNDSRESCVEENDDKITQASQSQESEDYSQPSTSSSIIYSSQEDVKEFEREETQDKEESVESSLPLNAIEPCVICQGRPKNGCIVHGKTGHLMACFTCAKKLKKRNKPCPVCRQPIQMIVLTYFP

COc1nc(C2CC2)ncc1-c1nc2c(n1C(C)C)[C@@]1(C(=O)Nc3cc(Cl)ccc31)N(c1cc(Cl)ccc1C)C2=O [Example S-121, (S)-6-chloro-5′-(5-chloro-2-methylphenyl)-2′-(2-cyclopropyl-4-methoxypyrimidin-5-yl)-3′-isopropyl-3′H-spiro[dihydroindole-3,4′-pyrrolo[3,4-d]imidazole]-2,6′(5′H)-dione]
IC50 (MDM2): 3.35 nM
AUC(0-t) [1, 3]: 26953.62 ng·h/mL and 24572.30 ng·h/mL
AUC(0-∞) [1, 3]: 27749.72 ng·h/mL and 25488.79 ng·h/mL
CL [1, 3]: 1.20 mL/min/kg and 1.31 mL/min/kg
Cmax [1, 3]: 3576.94 ng/mL and 3887.60 ng/mL
MRT(0-t) [1, 3]: 5.04 h and 5.26 h
MRT(0-∞) [1, 3]: 5.79 h and 6.22 h
Vz [1, 3]: 0.53 L/kg and 0.62 L/kg
t1/2 [1, 3]: 5.09 h and 5.50 h
AUC(0-t) [1, 4]: 43063.09 ng·h/mL and 40782.54 ng·h/mL
AUC(0-∞) [1, 4]: 43407.01 ng·h/mL and 41032.91 ng·h/mL
Cmax [1, 4]: 4835.52 ng/mL and 4714.57 ng/mL
MRT(0-t) [1, 4]: 5.27 h and 5.40 h
MRT(0-∞) [1, 4]: 5.45 h and 5.54 h
Tmax [1, 4]: 4.00 h
t1/2 [1, 4]: 3.34 h and 3.14 h
AUC(0-inf) [1, 5]: 29400 ng·h/mL
clearance [1, 5]: 1.14 mL/min/kg
AUC(0-t) [1, 6]: 28400 ng·h/mL
Cmax [1, 7]: 3350 ng/mL
MRT last [1, 5]: 5.15 h
MRT inf [1, 5]: 6.03 h
Tmax [1, 8]: 0.08 h
Vd [1, 5]: 0.52 L/kg
half-life [1, 9]: 5.25 h
AUC(0-inf) [1, 10]: 27500 ng·h/mL
clearance [1, 10]: 1.21 mL/min/kg
AUC(0-t) [1, 11]: 26600 ng·h/mL
Cmax [1, 12]: 3600 ng/mL
MRT last [1, 10]: 5.15 h
MRT inf [1, 10]: 6.01 h
Tmax [1, 13]: 0.083 h
Vd [1, 10]: 0.56 L/kg
half-life [1, 14]: 5.28 h
AUC(0-inf) [1, 15]: 40300 ng·h/mL
AUC(0-t) [1, 16]: 40100 ng·h/mL
Cmax [1, 17]: 4920 ng/mL
MRT last [1, 15]: 4.96 h
MRT inf [1, 15]: 5.08 h
Tmax [1, 18]: 2 h
half-life [1, 19]: 3.09 h
AUC(0-inf) [1, 20]: 41600 ng·h/mL
AUC(0-t) [1, 21]: 41300 ng·h/mL
Cmax [1, 22]: 4820 ng/mL
MRT last [1, 20]: 5.21 h
MRT inf [1, 20]: 5.36 h
Tmax [1, 23]: 3.33 h
half-life [1, 24]: 3.19 h
AUC(0-t) [1, 25]: 41300 ng·h/mL
half-life [1, 26]: 3.19 h
bioavailability ([1]; male, mouse, plasma, ICR mice): 62%
IC50 [2]: 67 nM

COc1cc(OC)c(-c2nc3c(n2C(C)C)[C@@]2(C(=O)Nc4cc(Cl)ccc42)N(c2cc(Cl)cnc2C)C3=O)cn1 [Example S-131, (S)-6-chloro-5′-(5-chloro-2-methylpyridin-3-yl)-2′-(4,6-dimethoxypyridin-3-yl)-3′-isopropyl-3′H-spiro[dihydroindole-3,4′-pyrrolo[3,4-d]imidazole]-2,6′(5′H)-dione]
IC50 (MDM2): 1.17 nM
AUC(0-t) [1, 3]: 1579.23 ng·h/mL and 1776.79 ng·h/mL
AUC(0-∞) [1, 3]: 1594.10 ng·h/mL and 1788.59 ng·h/mL
CL [1, 3]: 20.91 mL/min/kg and 18.64 mL/min/kg
Cmax [1, 3]: 2021.33 ng/mL and 1997.01 ng/mL
MRT(0-t) [1, 3]: 0.90 h and 0.94 h
MRT(0-∞) [1, 3]: 0.96 h and 0.98 h
Vz [1, 3]: 1.78 L/kg and 1.45 L/kg
t1/2 [1, 3]: 0.98 h and 0.90 h
AUC(0-t) [1, 4]: 5902.77 ng·h/mL and 6839.45 ng·h/mL
AUC(0-∞) [1, 4]: 6003.28 ng·h/mL and 7052.50 ng·h/mL
Cmax [1, 4]: 1853.01 ng/mL and 1794.96 ng/mL
MRT(0-t) [1, 4]: 2.27 h and 2.45 h
MRT(0-∞) [1, 4]: 2.40 h and 2.68 h
t1/2 [1, 4]: 1.28 h and 1.47 h
AUC(0-inf) [1, 5]: 1260 ng·h/mL
clearance [1, 5]: 26.4 mL/min/kg
AUC(0-t) [1, 6]: 1260 ng·h/mL
Cmax [1, 7]: 1780 ng/mL
MRT last [1, 5]: 0.71 h
MRT inf [1, 5]: 0.73 h
Tmax [1, 8]: 0.08 h
Vd [1, 5]: 1.73 L/kg
half-life [1, 9]: 0.76 h
AUC(0-inf) [1, 10]: 1550 ng·h/mL
clearance [1, 10]: 22 mL/min/kg
AUC(0-t) [1, 11]: 1540 ng·h/mL
Cmax [1, 12]: 1930 ng/mL
MRT last [1, 10]: 0.85 h
MRT inf [1, 10]: 0.89 h
Tmax [1, 13]: 0.083 h
Vd [1, 10]: 1.65 L/kg
half-life [1, 14]: 0.88 h
AUC(0-inf) [1, 15]: 3770 ng·h/mL
AUC(0-t) [1, 16]: 3740 ng·h/mL
Cmax [1, 17]: 1440 ng/mL
MRT last [1, 15]: 1.9 h
MRT inf [1, 15]: 1.95 h
Tmax [1, 18]: 1 h
half-life [1, 19]: 1.03 h
AUC(0-inf) [1, 20]: 5610 ng·h/mL
AUC(0-t) [1, 21]: 5500 ng·h/mL
Cmax [1, 22]: 1700 ng/mL
MRT last [1, 20]: 2.21 h
MRT inf [1, 20]: 2.34 h
Tmax [1, 23]: 1 h
half-life [1, 24]: 1.26 h
AUC(0-t) [1, 25]: 5500 ng·h/mL
half-life [1, 26]: 1.26 h
bioavailability ([1]; male, mouse, plasma, ICR mice): 143%
IC50 [2]: 46.3 nM

COc1cc(OC)c(-c2nc3c(n2C(C)C)[C@@]2(C(=O)Nc4cc(Cl)ccc42)N(c2cc(Cl)ccc2F)C3=O)cn1 [Example S-133, (S)-6-chloro-5′-(5-chloro-2-fluorophenyl)-2′-(4,6-dimethoxypyridin-3-yl)-3′-isopropyl-3′H-spiro[dihydroindole-3,4′-pyrrolo[3,4-d]imidazole]-2,6′(5′H)-dione]
IC50 (MDM2): 1.41 nM
AUC(0-t) [1, 3]: 3187.22 ng·h/mL and 2904.29 ng·h/mL
AUC(0-∞) [1, 3]: 3247.82 ng·h/mL and 3022.24 ng·h/mL
CL [1, 3]: 10.26 mL/min/kg and 11.03 mL/min/kg
Cmax [1, 3]: 2521.09 ng/mL and 2055.95 ng/mL
MRT(0-t) [1, 3]: 1.05 h and 1.20 h
MRT(0-∞) [1, 3]: 1.17 h and 1.45 h
Vz [1, 3]: 1.01 L/kg and 1.16 L/kg
t1/2 [1, 3]: 1.13 h and 1.22 h
AUC(0-t) [1, 4]: 4282.62 ng·h/mL and 5953.82 ng·h/mL
AUC(0-∞) [1, 4]: 4314.80 ng·h/mL and 5994.87 ng·h/mL
Cmax [1, 4]: 1489.30 ng/mL and 2195.02 ng/mL
MRT(0-t) [1, 4]: 2.17 h and 2.05 h
MRT(0-∞) [1, 4]: 2.22 h and 2.10 h
t1/2 [1, 4]: 1.05 h and 1.04 h
AUC(0-inf) [1, 5]: 4700 ng·h/mL
clearance [1, 5]: 7.09 mL/min/kg
AUC(0-t) [1, 6]: 4600 ng·h/mL
Cmax [1, 7]: 2980 ng/mL
MRT last [1, 5]: 1.18 h
MRT inf [1, 5]: 1.31 h
Tmax [1, 8]: 0.08 h
Vd [1, 5]: 0.66 L/kg
half-life [1, 9]: 1.07 h
AUC(0-inf) [1, 10]: 3660 ng·h/mL
clearance [1, 10]: 9.46 mL/min/kg
AUC(0-t) [1, 11]: 3560 ng·h/mL
Cmax [1, 12]: 2520 ng/mL
MRT last [1, 10]: 1.14 h
MRT inf [1, 10]: 1.31 h
Tmax [1, 13]: 0.083 h
Vd [1, 10]: 0.94 L/kg
half-life [1, 14]: 1.14 h
AUC(0-inf) [1, 15]: 6150 ng·h/mL
AUC(0-t) [1, 16]: 6070 ng·h/mL
Cmax [1, 17]: 1570 ng/mL
MRT last [1, 15]: 2.34 h
MRT inf [1, 15]: 2.43 h
Tmax [1, 18]: 1 h
half-life [1, 19]: 1.15 h
AUC(0-inf) [1, 20]: 5490 ng·h/mL
AUC(0-t) [1, 21]: 5440 ng·h/mL
Cmax [1, 22]: 1750 ng/mL
MRT last [1, 20]: 2.19 h
MRT inf [1, 20]: 2.25 h
Tmax [1, 23]: 1 h
half-life [1, 24]: 1.08 h
AUC(0-t) [1, 25]: 5440 ng·h/mL
bioavailability ([1]; male, mouse, plasma, ICR mice): 61%
IC50 [2]: 99.8 nM
